Test results as given in patent publication US7820172B1, “Laminin-derived multi-domain peptides” (BioSurface Engineering Technologies, Inc., priority 2006, dated 2010).
Positions of bridges follow the written chain, without caps; N, C: chain ends. Non-standard residues stand in square brackets, D forms with d. Residues, ends and D or L forms follow the SMILES beside them. Chains are numbered I, II in the order given. No end group written: not given here. Ahx = NCCCCCC(=O)O

Tests used:
RMEC cells = assay type: cell-based, rat; details: for increase in percentage cells bound on polystyrene: 0.1 μg/ml, two hours, as a percentage of uncoated controls; for cell binding to the polystyrene surface: RMEC cells, versus uncoated controls
Experimental: Cells Adhesion and Proliferation on LA2 coated surfaces. To evaluate the effects of LA2-coating on cell attachment, untreated polystyrene 96-well plates were coated with LA2 in concentration indicated in figures. In the cases of EVA films, ePTFE and titanium, the materials were placed in 48- or 96-well plate and coated with 2 μg/ml of LA2. Cell suspension in density of 1×10^6/ml was added to the wells. […] Cell number on the surface was determined using CyQuant® cell Proliferation Kit (Molecular Probes, Eugene, Oreg.). To detect cell adhesion on the titanium and ePTFE surfaces, cells were fixed with 4% buffered formalin and stained with bis-benzamide, viewed using fluorescence microscopy, and images recorded on digital media. In the cell proliferation studies, EVA films (6.5 mm diameter), similar to those used in the cell adhesion studies, were coated with 2 μg LA2/ml. The coated films were placed in untreated polystyrene 96-well plate and A7R5 cell suspension in density of 1×10^5/ml was added to the wells. After incubation of 3 hours, 3 and 7 days, the EVA films were transferred to a new 96-well plate and cell number on the film was determined using CyQuant® cell Proliferation Kit.
YIGSR is a different laminin adhesion sequence that has been used to increase cell attachment to device surfaces. […] Since cells could bind to LA2 via cell surface heparan sulfate, the heparin binding domain of LA2 was blocked by coating peptide on substrate-adsorbed heparin.

Male SD rats = assay: Tissue integration of LA2-coated ePTFE in rat subcutaneous implant model; assay type: in vivo; details: two weeks after implant
Experimental: Tissue integration of LA2-coated material in rat implant model. Male SD rats were anesthetized using an intraperitoneal administration of ketamine (40 mg/kg) and xylazine (5 mg/kg). Excess hair was removed and sterile surgical sites were prepared on the lower back. Subcutaneous pouches, approximately 3 cm long, were made through a skin incision using a hemostat and blunt dissection. A wafer (1×1.5 cm) of porous ePTFE was introduced into a subcutaneous pouch. The pouches were positioned on the upper flanks on either side of the backbone, with one wafer coated with MD LA2 and the other wafer uncoated. After the implant, the incision was closed with stainless steel surgical clips. Animals were assigned to experiment groups randomly. Each animal received bilateral subcutaneous implants. There were 8 implant sites for each treatment. After 14 days, animals were euthanized and the ePTFE implants were surgically recovered and processed for subsequent staining with hemotoxylin and eosin.
We hypothesized that ePTFE coated with LA2 would display improved tissue integration. […] In this analysis, the depth of tissue penetration was monitored by histomorphometric methods and scored on a scale of 1-4 (in 25% increments).

cell attachment = assay: Related cell binding assays comparing coatings (cell type not stated); assay type: cell-based; details: coating
C2C12 cells = assay: Attachment of C2C12 cells to coated polystyrene; assay type: cell-based, murine
Experimental: FIG. 1. Microphotographs of C2C12 cell on LA2 polystyrene. Murine myoblast C2C12 cells were seeded on uncoated polystyrene (A), or polystyrene coated 0.05-(B), 0.2-(C), and 0.4 (D) μg/ml LA2. Three hours after cell seeding, the materials were washed with PBS and micrographs taken with phase contrast optics. Original magnification 200×.
FIG. 2. Attachment of C2C12 cells to LA2 or SIKVAV (SEQ ID NO:16) coated polystyrene. C2C12 cells were seeded on polystyrene surface coated with LA2 (A) or SIKVAV (SEQ ID NO:16) (B). Three hours after seeding, unbound cells were removed by rinsing, and relative cell number determined using a fluorescent assay as described.
Cells Adhesion and Proliferation on LA2 coated surfaces. To evaluate the effects of LA2-coating on cell attachment, untreated polystyrene 96-well plates were coated with LA2 in concentration indicated in figures. […] Cell number on the surface was determined using CyQuant® cell Proliferation Kit (Molecular Probes, Eugene, Oreg.). To detect cell adhesion on the titanium and ePTFE surfaces, cells were fixed with 4% buffered formalin and stained with bis-benzamide, viewed using fluorescence microscopy, and images recorded on digital media. […] After incubation of 3 hours, 3 and 7 days, the EVA films were transferred to a new 96-well plate and cell number on the film was determined using CyQuant® cell Proliferation Kit.

cell binding = assay: Competitive blocking of cell binding to LA2; assay type: cell-based; details: binding not eliminated by either agent individually

Compound | increase in percentage cells bound on polystyrene (RMEC cells) | cell binding to the polystyrene surface (RMEC cells) | level of cell binding when used as competitive blocking agent (cell binding) | other results
CC[C@H](C)[C@H](NC(=O)[C@H](CCCNC(=N)N)NC(=O)[C@H](CCC(=O)O)NC(=O)[C@H](CC(C)C)NC(=O)[C@H](CCCCN)NC(=O)[C@H](CCCNC(=N)N)NC(=O)[C@H](CCCCN)NC(=O)[C@H](CCCNC(=N)N)NC(=O)CCCCCNC(=O)CCCCCNC(=O)CCCCCNC(=O)[C@H](CCCCNC(=O)[C@H](C)NC(=O)[C@H](C)NC(=O)[C@@H](NC(=O)[C@H](C)NC(=O)[C@@H](NC(=O)[C@H](CCCCN)NC(=O)[C@@H](NC(=O)[C@@H](N)CO)[C@@H](C)CC)C(C)C)C(C)C)NC(=O)[C@H](C)NC(=O)[C@H](C)NC(=O)[C@@H](NC(=O)[C@H](C)NC(=O)[C@@H](NC(=O)[C@H](CCCCN)NC(=O)[C@@H](NC(=O)[C@@H](N)CO)[C@@H](C)CC)C(C)C)C(C)C)C(=O)N[C@@H](C)C(=O)N[C@@H](CCCNC(=N)N)C(N)=O [LA2, H-SIKVAVAAK(H-SIKVAVAA)-Ahx-Ahx-Ahx-RKRKLERIAR-NH2] (I: H-SIKVAVAAK[Ahx][Ahx][Ahx]RKRKLERIAR-NH2 / II: H-SIKVAVAA; amide I:9-II:C) | over 150% |  |  | inflammation (Male SD rats): little evidence of inflammation
H-YIGSRAAK(H-YIGSRAA)-Ahx-Ahx-Ahx-RKRKLERIAR-NH2 (chain 1 H-YIGSRAAK[Ahx][Ahx][Ahx]; also: branched: chain 2 on Lys8 side chain of chain 1, chain 1 C-terminus joined to chain 3 N-terminus via Ahx-Ahx-Ahx) [MD Peptide 2, similar multi-domain peptide containing YIGSR] | over 50% | substantially more effective than uncoated controls |  | cell attachment versus linear SIKVAV, dimerized SIKVAV and random-sequence peptides (cell attachment): more effective
SEQ ID NO:25 (KPVSLSYRAPARFFESHVA; Random sequence) |  | did not support cell binding |  | 
SEQ ID NO:26 (DTAYKDWPNLFREIR; Random sequence) |  | did not support cell binding |  | 
SIKVAV (Cellular attachment peptide sequence) |  |  | reduced the level of cell binding | coating concentration required to achieve the same levels of cell attachment (C2C12 cells; C2C12, polystyrene (FIG. 2)): 100 µg/mL; cell attachment compared to uncoated polystyrene (C2C12 cells; C2C12 cells, coated polystyrene, 3 hours): able to increase cell attachment
heparin |  |  | reduced the level of cell binding | 
